Where two headings read alike, the source gives them in different places.
How the values were obtained:
[1] = test system: human venous whole blood (IFN-γ); assay: Human whole blood IFN-γ assay; format: cell-based
Protocol: Human venous whole blood (22.5 μL per well), obtained from healthy donors, was pre-treated with compounds for one hour at 37° C. in a humidified 95% air/5% CO2 incubator. The blood was stimulated with 2.5 μL anti-human CD3 and anti-CD28 mAb at a final concentration of 1 μg/mL each for 24 hours at 37° C. IFN-γ in the supernatants was measured using AlphLISA kit (Cat #AL217).

human DGKα = human DGKα (Homo sapiens (Human), UniProt P23743); assay: DGKα LIPGLO assay (extruded liposome substrate, ADP-Glo luminescence); format: biochemical
human DGKα, sequence (P23743 whole entry, looked up): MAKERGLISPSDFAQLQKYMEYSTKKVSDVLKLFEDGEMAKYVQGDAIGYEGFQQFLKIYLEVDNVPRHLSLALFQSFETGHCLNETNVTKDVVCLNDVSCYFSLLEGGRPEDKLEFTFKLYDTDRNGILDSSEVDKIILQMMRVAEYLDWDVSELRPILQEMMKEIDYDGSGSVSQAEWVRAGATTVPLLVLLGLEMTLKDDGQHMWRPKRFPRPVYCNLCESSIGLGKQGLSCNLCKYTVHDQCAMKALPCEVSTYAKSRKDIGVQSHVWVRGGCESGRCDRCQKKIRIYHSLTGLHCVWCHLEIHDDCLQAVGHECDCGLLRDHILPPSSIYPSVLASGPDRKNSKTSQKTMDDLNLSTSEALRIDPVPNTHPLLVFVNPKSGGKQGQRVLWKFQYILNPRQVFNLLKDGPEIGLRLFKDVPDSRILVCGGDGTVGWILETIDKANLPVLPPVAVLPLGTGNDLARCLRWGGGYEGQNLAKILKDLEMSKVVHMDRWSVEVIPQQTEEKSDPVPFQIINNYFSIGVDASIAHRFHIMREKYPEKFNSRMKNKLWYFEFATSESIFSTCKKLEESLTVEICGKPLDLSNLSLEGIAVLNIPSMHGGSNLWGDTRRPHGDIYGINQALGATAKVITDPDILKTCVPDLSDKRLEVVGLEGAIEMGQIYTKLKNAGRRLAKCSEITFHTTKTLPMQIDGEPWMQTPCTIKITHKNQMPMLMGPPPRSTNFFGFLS

human DGKζ = human DGKζ (Homo sapiens (Human), UniProt Q13574); assay: DGKζ LIPGLO assay (extruded liposome substrate, ADP-Glo luminescence); format: biochemical
human DGKζ, sequence (Q13574 other isoform, or with tags, fused parts or gaps): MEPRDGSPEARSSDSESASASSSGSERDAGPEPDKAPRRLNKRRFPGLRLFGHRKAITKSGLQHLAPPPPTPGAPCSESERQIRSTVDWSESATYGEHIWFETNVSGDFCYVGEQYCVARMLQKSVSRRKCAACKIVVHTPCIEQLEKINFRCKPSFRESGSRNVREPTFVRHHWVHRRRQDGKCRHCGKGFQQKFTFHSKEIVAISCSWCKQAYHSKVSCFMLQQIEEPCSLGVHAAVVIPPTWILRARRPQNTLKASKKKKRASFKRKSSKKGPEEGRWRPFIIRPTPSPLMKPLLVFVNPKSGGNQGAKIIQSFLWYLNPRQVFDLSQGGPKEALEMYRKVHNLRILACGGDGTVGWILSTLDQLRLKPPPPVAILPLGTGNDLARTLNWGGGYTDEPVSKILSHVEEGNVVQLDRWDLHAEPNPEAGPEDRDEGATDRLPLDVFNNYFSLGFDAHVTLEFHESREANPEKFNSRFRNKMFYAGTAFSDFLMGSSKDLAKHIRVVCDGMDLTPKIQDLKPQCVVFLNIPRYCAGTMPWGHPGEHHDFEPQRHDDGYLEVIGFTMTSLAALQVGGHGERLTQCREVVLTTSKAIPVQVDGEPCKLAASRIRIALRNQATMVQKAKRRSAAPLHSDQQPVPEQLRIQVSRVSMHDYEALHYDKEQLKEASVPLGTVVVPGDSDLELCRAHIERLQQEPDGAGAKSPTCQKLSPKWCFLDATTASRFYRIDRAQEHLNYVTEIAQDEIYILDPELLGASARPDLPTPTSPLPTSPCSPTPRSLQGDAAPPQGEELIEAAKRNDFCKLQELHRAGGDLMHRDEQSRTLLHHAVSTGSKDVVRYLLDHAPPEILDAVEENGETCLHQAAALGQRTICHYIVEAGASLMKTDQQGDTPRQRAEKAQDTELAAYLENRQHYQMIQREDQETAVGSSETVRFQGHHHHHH

[2] = Homo sapiens, whole blood, normalized to 3 μM reference compound as 100% activation, read-out: IFN-γ Whole Blood Normalized EC50
[3] = liposome assay, read-out: DGK alpha LIPGLO IC50
[4] = liposome assay, read-out: DGK zeta LIPGLO IC50
[5] = whole blood, normalized to 3 μM reference compound as 100% activation, read-out: IFN-γ Whole Blood Normalized EC50

Compound	EC50 [1, 2] [nM]	IC50 (human DGKα; [3]) [nM]	IC50 (human DGKζ; [4]) [nM]	EC50 [1, 5] [nM]	EC50 ([1]; human whole blood, anti-CD3 plus anti-CD28 stimulation, 24 hours, read-out: IFN-γ Whole Blood EC50) [nM]	IC50 (human DGKα; liposome (LIPGLO) assay, read-out: DGK alpha (liposome assay) IC50) [nM]	IC50 (human DGKζ; liposome (LIPGLO) assay, read-out: DGK zeta (liposome assay) IC50) [nM]
CCC(c1ccc2c(c1)OC(F)(F)O2)N1C[C@H](C)N(c2nc(=O)n(C)c3ccc(C#N)nc23)C[C@H]1CC (single isomer, unassigned) [Example 79]	300	300	23	–	–	–	–
CC[C@H]1CN(C(C)c2ccc(OCC3CC3)cc2F)[C@H](CC)CN1c1nc(=O)n(C)c2ccc(C#N)nc12 (single isomer, unassigned) [Example 32]	–	500	31	19	–	–	–
C[C@@H]1CN(c2nc(=O)n(C)c3ccc(C#N)nc23)[C@@H](C)CN1Cc1cc(F)c(F)cc1Cl [Example 134, 4-((2S,5R)-4-(2-chloro-4,5-difluorobenzyl)-2,5-dimethylpiperazin-1-yl)-1-methyl-2-oxo-1,2-dihydropyrido[3,2-d]pyrimidine-6-carbonitrile]	3670	4260	780	–	–	–	–
CC[C@@H]1CN(c2nc(=O)n(C)c3ccc(C#N)nc23)[C@@H](C)CN1C(C)c1ccc(C2CC2)cc1 (single isomer, unassigned) [Example 63]	–	40	21	70	–	–	–
CC[C@H]1CN(C(C)c2ccc(OC(F)(F)F)cc2)[C@H](C)CN1c1nc(=O)n(C)c2ccc(C#N)nc12 (stereo partly drawn) [Example 123, 4-((2S,5R)-2-ethyl-5-methyl-4-(1-(4-(trifluoromethoxy)phenyl)ethyl)piperazin-1-yl)-1-methyl-2-oxo-1,2-dihydropyrido[3,2-d]pyrimidine-6-carbonitrile]	2570	1380	1330	–	–	–	–
[2H]C([2H])([2H])Oc1ccc(C(C)N2C[C@H](CC)N(c3nc(=O)n(C)c4ccc(C#N)nc34)C[C@H]2CC)cc1 (single isomer, unassigned) [Example 190]	–	29	17	9	–	–	–
CC(c1ccc(C(F)(F)F)cc1)N1C[C@H](C)N(c2nc(=O)n(C)c3ccc(C#N)nc23)C[C@H]1C (single isomer, unassigned) [Example 140]	–	180	360	430	–	–	–
CC[C@H]1CN(C(C)c2ccc(C(F)(F)F)nc2)[C@H](CC)CN1c1nc(=O)n(C)c2ccc(C#N)nc12 (single isomer, unassigned) [Example 44]	–	85	21	260	–	–	–
CC[C@@H]1CN(c2nc(=O)n(C)c3ccc(C#N)nc23)[C@@H](C)CN1C(c1ccc(F)cc1)c1ccc(C2CC2)cn1 (single isomer, unassigned) [Example 76]	–	79	23	180	–	–	–
COC[C@@H]1CN(c2nc(=O)n(C)c3ccc(C#N)nc23)[C@@H](C)CN1C(c1ccc(F)cc1)c1ccc(C(F)(F)F)cn1 (single isomer, unassigned) [Example 179]	–	81	22	55	–	–	–
CC[C@@H]1CN(c2nc(=O)n(C)c3ccc(C#N)nc23)[C@@H](C)CN1C(c1ccc(F)cc1)c1ccccn1 (single isomer, unassigned) [Example 88]	–	110	76	48	–	–	–
CC[C@@H]1CN(c2nc(=O)n(C)c3ccc(C#N)nc23)[C@@H](C)CN1C(C)c1ccc(C2CC2)cc1F (single isomer, unassigned) [Example 91]	190	330	44	–	–	–	–
CC(c1ccc(C(F)(F)F)cc1)N1C[C@H](C)N(c2nc(=O)n(C)c3ccc(C#N)nc23)C[C@H]1C (single isomer, unassigned) [Example 141]	–	1270	1760	3550	–	–	–
CCC(c1ccc(OC(F)(F)F)cc1)N1C[C@H](C)N(c2nc(=O)n(C)c3ccc(C#N)nc23)C[C@H]1C (single isomer, unassigned) [Example 154]	1430	16	370	–	–	–	–
C[C@@H]1CN(c2nc(=O)n(C)c3ccc(C#N)nc23)[C@@H](C)CN1C(c1ccc(OC(F)(F)F)cc1)c1cc(C2CC2)on1 (single isomer, unassigned) [Example 164]	650	120	340	–	–	–	–
CC(C)c1ccc(CN2C[C@H](C)N(c3nc(=O)n(C)c4ccc(C#N)nc34)C[C@H]2C)cc1 [Example 137, 4-((2S,5R)-4-(4-isopropylbenzyl)-2,5-dimethylpiperazin-1-yl)-1-methyl-2-oxo-1,2-dihydropyrido[3,2-d]pyrimidine-6-carbonitrile]	2650	83	190	–	–	–	–
CC(c1ccc(OC(C)(C)C#N)cc1)N1C[C@H](C)N(c2nc(=O)n(C)c3ccc(C#N)nc23)C[C@H]1C (stereo partly drawn) [Example 377, 4-((2S,5R)-4-(1-(4-((2-cyanopropan-2-yl)oxy)phenyl)ethyl)-2,5-dimethylpiperazin-1-yl)-1-methyl-2-oxo-1,2-dihydropyrido[3,2-d]pyrimidine-6-carbonitrile]	–	–	–	–	520	240	370
CC[C@H]1CN(C(C)c2ccc(C3CC3)cc2F)[C@H](CC)CN1c1nc(=O)n(C)c2ccc(C#N)nc12 (single isomer, unassigned) [Example 41]	–	2270	1080	470	–	–	–
CC[C@@H]1CN(c2nc(=O)n(C)c3ccc(C#N)nc23)[C@@H](C)CN1C(C)c1ccc(OCC2CC2)cc1F (single isomer, unassigned) [Example 70]	–	840	1410	1440	–	–	–
CC[C@@H]1CN(c2nc(=O)n(C)c3ccc(C#N)nc23)[C@@H](C)CN1C(C)c1ccc(OC(C)C)cc1 (single isomer, unassigned) [Example 53]	–	630	79	200	–	–	–
CC[C@H]1CN(C(C)c2ccc(C(F)(F)F)cc2)[C@H](C)CN1c1nc(=O)n(C)c2ccc(C#N)nc12 (stereo partly drawn) [Example 116, 4-((2S,5R)-2-ethyl-5-methyl-4-(1-(4-(trifluoromethyl)phenyl)ethyl)piperazin-1-yl)-1-methyl-2-oxo-1,2-dihydropyrido[3,2-d]pyrimidine-6-carbonitrile]	–	1000	2110	1430	–	–	–
CC[C@H]1CN(C(C)c2ccc3c(c2)OC(F)(F)O3)[C@H](CC)CN1c1nc(=O)n(C)c2ccc(C#N)nc12 (single isomer, unassigned) [Example 15]	–	490	1220	1740	–	–	–
CC[C@H]1CN(C(C)c2ccc(C(F)(F)F)cc2)[C@H](CC)CN1c1nc(=O)n(C)c2ccc(C#N)nc12 (single isomer, unassigned) [Example 21]	–	386	1010	2850	–	–	–
C[C@@H]1CN(c2nc(=O)n(C)c3ccc(C#N)nc23)[C@@H](C)CN1Cc1ccc(F)cc1Cl [Example 136, 4-((2S,5R)-4-(2-chloro-4-fluorobenzyl)-2,5-dimethylpiperazin-1-yl)-1-methyl-2-oxo-1,2-dihydropyrido[3,2-d]pyrimidine-6-carbonitrile]	650	920	220	–	–	–	–
CC[C@@H]1CN(c2nc(=O)n(C)c3ccc(C#N)nc23)[C@@H](CC)CN1Cc1ccc(OC(F)(F)F)cc1 [Example 22, 4-((2S,5R)-2,5-diethyl-4-(4-(trifluoromethoxy)benzyl)piperazin-1-yl)-1-methyl-2-oxo-1,2-dihydropyrido[3,2-d]pyrimidine-6-carbonitrile]	380	2	180	–	–	–	–

— patent publication US11584747B2, “Substituted pyridopyrimidinonyl compounds useful as T cell activators” (BRISTOL-MYERS SQUIBB COMPANY, priority 2019, dated 2023)
